Drawing on PubChem BioAssay (NCI), this text covers TGI and GI50 for ten compounds.

Where “and” joins values, the source holds several entries; their conditions need not be identical. Equal values may be shown once.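 Step 1: Grow cells in 96-well plates. Step 2: Expose to compound for 48 hours at 5 concentrations. Step 3: Interpolate endpoints linearly; if unreached, use highest concentration. The concentration for 50% growth inhibition is given as GI50. TGI is the concentration that stops growth completely.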 Where a SMILES comes first, the peptide text is derived from it. The star is where a group is joined. Boc = CC(C)(C)OC(=O)*; Bn = c1ccc(C*)cc1 A value given as a limit tells only on which side of the number the result lay.

Some test systems named below: SW-620 colon; NCI/ADR-RES ovarian; SF-268 CNS; UACC-257 melanoma; LOX IMVI melanoma; HCC-2998 colon; T-47D breast; RXF 393 renal; HCT-15 colon; M14 melanoma; MDA-MB-435; SN12C renal; COLO 205 colon.
Common to all, as to assay: NCI-60 cell line screen, 48 h

`CCCC(=O)OC[n+]1ccc(-c2c(COC(=O)NC(C)C)c(COC(=O)NC(C)C)c3n2CCC3)cc1`: the TGI in the assay with SW-620 colon, with NCI/ADR-RES ovarian, in the assay with SF-268 CNS, in the assay with UACC-257 melanoma, in the assay on LOX IMVI melanoma and in the assay on HCC-2998 colon was more than 100 µM throughout. The TGI in the assay with T-47D breast, with RXF 393 renal, in the assay on HCT-15 colon, in the assay on M14 melanoma, with MDA-MB-435 and in the assay with SN12C renal was more than 100 µM in each case. The compound further yielded a TGI with COLO 205 colon of more than 100 µM.

As for `O=C(Nc1cccc(C(=O)NCCCO)c1)/C(=C/c1ccccc1)NC(=O)c1ccccc1`, the TGI with SW-620 colon, with NCI/ADR-RES ovarian, in the assay on SF-268 CNS, in the assay with UACC-257 melanoma, with LOX IMVI melanoma and in the assay with HCC-2998 colon was more than 100 µM throughout. The TGI with T-47D breast, in the assay with RXF 393 renal, with HCT-15 colon, in the assay with M14 melanoma, with MDA-MB-435 and in the assay on SN12C renal was more than 100 µM each time. The TGI with COLO 205 colon was more than 100 µM.

Take `CN(C)c1ccc(/C=C(\NC(=O)c2ccccc2)C(=O)Nc2cccc(C(=O)NCCCO)c2)cc1`: the TGI with SW-620 colon, with NCI/ADR-RES ovarian, in the assay with SF-268 CNS, with UACC-257 melanoma, with LOX IMVI melanoma and with HCC-2998 colon was more than 100 µM each time. Moreover, the TGI with T-47D breast, with RXF 393 renal, with HCT-15 colon, with M14 melanoma, in the assay on MDA-MB-435 and in the assay on SN12C renal was more than 100 µM throughout. For the same compound, in the assay on COLO 205 colon, the TGI is more than 100 µM.

As for `CNC(=O)C(CC(C)C)NC(=O)C(C)NC(=O)C(Cc1ccc(OCc2ccccc2)cc1)NC(=O)C(COCc1ccccc1)NC(=O)OC(C)(C)C` (configuration not stated) (Boc-S(Bn)Y(Bn)AL-NHMe; configuration not given here), the TGI in the assay on SW-620 colon was 31 µM and 28.7 µM; in the assay on NCI/ADR-RES ovarian, more than 100 µM; in the assay with SF-268 CNS, 53.8 µM and 46.5 µM; with UACC-257 melanoma, more than 100 µM; in the assay with LOX IMVI melanoma, 27.5 µM and 48.8 µM; in the assay with HCC-2998 colon, > 87.3 µM and 9.17 µM. Moreover, the TGI in the assay with T-47D breast was > 74 µM and 27.1 µM; with RXF 393 renal it was > 100 µM and 24.3 µM; in the assay with HCT-15 colon, more than 100 µM; in the assay with M14 melanoma it was > 100 µM and 28.2 µM; in the assay on MDA-MB-435, > 55.9 µM and 27.9 µM; in the assay with SN12C renal, > 86.4 µM and 42.1 µM. Further, the TGI in the assay with COLO 205 colon is 38.3 µM and 9.52 µM. The GI50 is 29.3 µM and 3.13 µM in the assay with HCC-2998 colon; 28.2 µM and 5.15 µM with T-47D breast; 47.6 µM and 7.04 µM with RXF 393 renal; 42.1 µM and 15 µM in the assay on M14 melanoma; 20.7 µM and 10.1 µM in the assay on MDA-MB-435; > 52.3 µM and 18.8 µM in the assay on SN12C renal. In addition, the GI50 in the assay on COLO 205 colon is 17.3 µM and 2.11 µM.

On to `CN1CC2=C(NC(=S)NC2c2ccccc2Cl)/C(=C/c2ccccc2Cl)C1` (configuration not stated), for which the TGI in the assay on SW-620 colon, with NCI/ADR-RES ovarian, with SF-268 CNS, with UACC-257 melanoma, with LOX IMVI melanoma and in the assay with HCC-2998 colon was more than 100 µM throughout. The TGI in the assay on T-47D breast, with RXF 393 renal, in the assay with HCT-15 colon, in the assay with M14 melanoma, in the assay on MDA-MB-435 and in the assay on SN12C renal was more than 100 µM throughout. The compound further came in with a TGI in the assay on COLO 205 colon of 60.4 µM.

With `CC(=O)NC1COC(COC(=O)CCCCCCCCCCNC(=O)c2ccc([N+](=O)[O-])c3c(=O)c4ccccc4[nH]c23)C(O)C1OC(C)C(=O)NC(C(=O)NC(CCC(N)=O)C(=O)OCc1ccccc1)C(C)C` (configuration not stated), the TGI with SW-620 colon was more than 72.8 µM; in the assay on NCI/ADR-RES ovarian it was more than 94.5 µM; in the assay with SF-268 CNS it was 32.8 µM; in the assay on UACC-257 melanoma, 38.6 µM; in the assay with LOX IMVI melanoma, 30.1 µM; in the assay on HCC-2998 colon, 14.3 µM. The TGI with T-47D breast was 13 µM; in the assay with RXF 393 renal, 23.2 µM; in the assay on HCT-15 colon it was 50.2 µM; in the assay with M14 melanoma, 66.3 µM; in the assay on MDA-MB-435, more than 100 µM; with SN12C renal it was more than 92.6 µM. Moreover, the TGI in the assay with COLO 205 colon is 41.2 µM.

`Cc1cc2c(cc1Cl)SC(NNC1=NCCN1)=NS2(=O)=O`: the TGI in the assay with SW-620 colon, with NCI/ADR-RES ovarian, with SF-268 CNS, in the assay on UACC-257 melanoma, in the assay with LOX IMVI melanoma and with HCC-2998 colon was more than 10 µM throughout. The TGI in the assay with T-47D breast, in the assay with RXF 393 renal, in the assay on HCT-15 colon, in the assay on M14 melanoma, with MDA-MB-435 and with SN12C renal was more than 10 µM throughout. For the same compound, the TGI with COLO 205 colon was more than 10 µM.

`CC(=O)n1[nH]c(=O)n(-c2ccccc2)c1=O`: the TGI in the assay on SW-620 colon, with NCI/ADR-RES ovarian, in the assay with SF-268 CNS, in the assay on UACC-257 melanoma, with LOX IMVI melanoma and in the assay with HCC-2998 colon was more than 100 µM throughout. For the same compound, the TGI in the assay on T-47D breast, in the assay with RXF 393 renal, with HCT-15 colon, in the assay with M14 melanoma, in the assay with MDA-MB-435 and in the assay with SN12C renal was more than 100 µM throughout. In addition, in the assay with COLO 205 colon, the TGI is more than 100 µM.

Consider `CC(=O)Nc1cc2nc3n(c2cc1C)CCC3OC(C)=O` (configuration not stated), for which the TGI in the assay on SW-620 colon, in the assay on NCI/ADR-RES ovarian, in the assay with SF-268 CNS, with UACC-257 melanoma, in the assay with LOX IMVI melanoma and with HCC-2998 colon was more than 100 µM in each case. The TGI with T-47D breast, in the assay with RXF 393 renal, in the assay with HCT-15 colon, in the assay with M14 melanoma, with MDA-MB-435 and with SN12C renal was more than 100 µM each time. This compound returned a TGI in the assay on COLO 205 colon of more than 100 µM.

On to `CC1=CC(=O)N(n2c(-c3ccccc3)n[nH]c2=O)C1=O`, for which the TGI with SW-620 colon, in the assay on NCI/ADR-RES ovarian, in the assay with SF-268 CNS, in the assay with UACC-257 melanoma, in the assay with LOX IMVI melanoma and in the assay with HCC-2998 colon was more than 100 µM throughout. In addition, the TGI with T-47D breast, in the assay with RXF 393 renal, in the assay on HCT-15 colon, in the assay with M14 melanoma, in the assay with MDA-MB-435 and in the assay on SN12C renal was more than 100 µM throughout. The TGI in the assay on COLO 205 colon was more than 100 µM.
